Patent US11807627B2, “Morphic forms of complement factor D inhibitors” (priority 2018, dated 2023)
Values after ≈ are worked out from the molar mass of the structure shown.

Legend:
Assay type in all cases: physicochemical
[1] = Hydration study in 2-propanol/water systems
Description: A hydration study of Compound 3 Form A was conducted using 4 different aw 2-propanol/water solvent systems. Approximately 20 mg of Compound 3 Form A was weighed into four 2 mL glass vials. An appropriate volume of solvent system was added to the solids and samples were agitated for about 48 hours under ambient conditions. After 48 hours, solids were isolated using centrifuge filtration and analyzed by XRPD. […] (FIG. 32)

[2] = Milling of Form A; conditions: 2 min milling (5000 RPM); initial and repeat runs
Description: Compound 3 Form A material was milled using a Precellys® Evolution SUPER Homogenizer. Approximately 50 mg of Compound 3 Form A was weighed into 2×plastic 2 mL bead mill vials and 5×2.4 […] metal beads were placed into each vial. Sample 1 was milled using the following: RPM=5000; Cycles=2×60 seconds; Pause=10 seconds (between cycles). Sample 2 was milled using the above method but 5×60 seconds cycles instead of2×60 seconds. After milling, a sub-sample was taken from each and analyzed by XRPD and PLM. The above procedure was repeated and the resulting samples were analyzed by XRPD and DSC analysis.

[3] = Solid state stress testing (temperature, humidity, storage, photostability)
[4] = Solvent experiments (solubility, Example 3)
[5] = Polymorph study: anti-solvent addition
Description: Anti-solvent additions were completed on saturated solutions of Compound 3 produced from temperature cycling experiments. Precipitation of solids was observed (before anti-solvent additions were completed) from selected solvent systems when storage under ambient conditions. Precipitated solids were analyzed by XRPD and re-dissolved using gentle heating and addition of minimal solvent. An appropriate anti-solvent was added to each saturated solution in 50μL aliquots until precipitation was observed or a total of 1 mL anti-solvent had been added. Samples where solids were precipitated were isolated using centrifuge filtration and analyzed by XRPD. […] Samples where solids had precipitated were isolated using centrifuge filtration and analyzed by XRPD (Table 20A and Table 20B).

[6] = Polymorph study: evaporation
Description: Saturated solutions of Compound 3 produced from temperature cycling experiments were evaporated under ambient conditions. After approximately 4 days, observations were made, and solids recovered were analyzed by XRPD (Table 21).

[7] = Process for the formation of Form J: XRPD result after each step (Table 22)
Description: A polymorph study was completed for Form J. The production of Form J was completed by temperature cycling amorphous Compound 3 in acetronitrile (Form B) with drying the material under ambient conditions for about 24 hours.

[8] = Interconversion experiments: competitive slurries (Example 2, Table 6); conditions: Forms A and G vs Form B, ethyl acetate, ambient and approximately 50° C.
Description: A solution of Compound 3 and solvent/solvent system of interest was prepared. Solids persisted in solution. The samples were placed onto a stir plate at ambient (RT) or elevated (ET) temperatures. The samples were monitored to ensure that solids persisted during the slurry process. The solids were collected via vacuum filtration and dried under ambient conditions. […] At ambient temperature, Forms B and M are both present after almost a week of slurrying.

[9] = Grinding study; conditions: pestle and mortar
Description: 10 mg of the appropriate Compound 3 material (detailed in Table 28) was weighed into separate HPLC vials. The solids were then ground using a pestle and mortar. Resulting materials were analyzed by XRPD (FIG. 47). From samples where mixtures of forms were used, mixtures of forms were recovered. Where all 3 forms were used, Form A was not returned, although it is possible that the already small particle size of Form A was reduced further by grinding and therefore not detected by XRPD analysis.

[10] = Polarized light microscopy (PLM); conditions: Table 27A
Description: The presence of crystallinity (birefringence) was determined using an Olympus BX50 microscope, equipped with cross-polarizing lenses and a Motic camera. Images were captured using Motic Images Plus 2.0. All images were recorded using the 20×objective, unless otherwise stated. All samples were prepared using silicone oil and covered with a cover slip before PLM analysis was completed.

[11] = 50% 2-Propanol / 50% Heptane (% v/v)
[12] = 70% 2-Propanol / 30% Heptane (% v/v)
[13] = 70% 2-Propanol / 30% Water (% v/v) aw = 0.8
[14] = 95% Heptane / 5% 2-Propanol (% v/v)
[15] = 95% Methanol / 5% Water (% v/v) calc. aw = 0.2

## CC(=O)c1nn(CC(=O)N2[C@H](C(=O)Nc3nc(Br)ccc3C)C[C@@]3(C)C[C@@H]23)c2ccc(-c3cnc(C)nc3)cc12 [Compound 3 Form A]
[1]; Water activity (aw) 0.354, 2-propanol/water, about 48 hours, ambient
  Hydration study: XRPD results: Form A
[1]; Water activity (aw) 0.526
  Hydration study: XRPD results: Form A
[1]; Water activity (aw) 0.704
  Hydration study: XRPD results: Predominantly amorphous
[1]; Water activity (aw) 0.910
  Hydration study: XRPD results: Predominantly amorphous
[2]
  Milling: XRPD: Amorphous

## CC(=O)c1nn(CC(=O)N2[C@H](C(=O)Nc3nc(Br)ccc3C)C[C@@]3(C)C[C@@H]23)c2ccc(-c3cnc(C)nc3)cc12 [Compound 3, (1R,3S,5R)-2-(2-(3-acetyl-5-(2-methylpyrimidin-5-yl)-1H-indazol-1-yl)acetyl)-N-(6-bromo-3-methylpyridin-2-yl)-5-methyl-2-azabicyclo[3.1.0]hexane-3-carboxamide]
[3]
  Solid State Stress Testing: Room Temperature storage: No degradation
[3]; 40° C./75% RH
  Solid State Stress Testing: Humidity: No degradation
[3]; 105° C. - 24 hr
  Solid State Stress Testing: Elevated temperature: No degradation
[3]; exposure to UV visible
  Solid State Stress Testing: Photostability: No light senstitivity
[4]; DMSO, organic solvent or mixture
  solubility: 104000 µg/mL (≈ 173 mM)
[4]; UPLC Water
  solubility: 1040 µg/mL (≈ 1.73 mM)
[4]; acetone, organic solvent or mixture
  solubility: 34300 µg/mL (≈ 56.9 mM)
[4]; ethanol, organic solvent or mixture
  solubility: 8380 µg/mL (≈ 13.9 mM)
[4]; heptane, organic solvent or mixture
  solubility: 865 µg/mL (≈ 1.44 mM)
[5]; 1-Butanol, *solids that precipitated under ambient conditions, WC = weakly crystalline
  Crystallization technique: Anti-solvent Additions: Form A (WC) *
[5]; 1-Butanol, WC = weakly crystalline
  XRPD analysis after re- dissolution and storage at 4° C. for ca. 48 hours: WC Form A
[5]; 2-Propanol
  XRPD analysis after re- dissolution and storage at 4° C. for ca. 48 hours: Form A
[5]; 2-Propanol, *solids that precipitated under ambient conditions
  Crystallization technique: Anti-solvent Additions: Form A*
[5]; 40% Ethanol / 60% Water (% v/v) calc. aw = 0.7, *solids that precipitated under ambient conditions
  Crystallization technique: Anti-solvent Additions: Mixture L + M*
[5]; [11]
  Observation after re-dissolution and anti-solvent addition: Clear solution
  Observations after storage in the fridge for ca. 48 hours: Clear solution
[5]; 50% 2-Propanol / 50% Heptane (% v/v), *solids that precipitated under ambient conditions, WC = weakly crystalline
  Crystallization technique: Anti-solvent Additions: Form A (WC) *
[5]; 50% Ethanol / 50% Heptane (% v/v), *solids that precipitated under ambient conditions
  Crystallization technique: Anti-solvent Additions: Form A*
[5]; 50% Ethanol:50% Heptane (% v/v)
  XRPD analysis after re- dissolution and storage at 4° C. for ca. 48 hours: Form A
[5]; [12]
  Observation after re-dissolution and anti-solvent addition: Clear solution
  Observations after storage in the fridge for ca. 48 hours: Clear solution
[5]; 70% 2-Propanol / 30% Heptane (% v/v) re-prepared sample
  Observations after storage in the fridge for ca. 48 hours: Clear solution
[5]; 70% 2-Propanol / 30% Heptane (% v/v), *solids that precipitated under ambient conditions
  Crystallization technique: Anti-solvent Additions: Mixture L + M*
[5]; [13]
  Crystallization technique: Anti-solvent Additions: Clear solution
  Observations after storage in the fridge for ca. 48 hours: Clear solution
[5]; 95% 2-Propanol / 5% Heptane (% v/v)
  XRPD analysis after re- dissolution and storage at 4° C. for ca. 48 hours: Form A
[5]; 95% 2-Propanol / 5% Heptane (% v/v), *solids that precipitated under ambient conditions
  Crystallization technique: Anti-solvent Additions: Form A*
[5]; [14]
  Observations after storage in the fridge for ca. 48 hours: Clear solution
[5]; [15]
  Crystallization technique: Anti-solvent Additions: Clear solution
[5]; 95% Methanol:5% Water (% v/v) calc. aw = 0.2
  Observations after storage in the fridge for ca. 48 hours: Clear solution
[5]; Acetone
  XRPD analysis after re- dissolution and storage at 4° C. for ca. 48 hours: Form A
[5]; Acetone, *solids that precipitated under ambient conditions
  Crystallization technique: Anti-solvent Additions: Form A*
[5]; Acetonitrile
  Observations after storage in the fridge for ca. 48 hours: Clear solution
[5]; Ethanol
  XRPD analysis after re- dissolution and storage at 4° C. for ca. 48 hours: Form A
[5]; Ethanol, *solids that precipitated under ambient conditions
  Crystallization technique: Anti-solvent Additions: Form A*
[5]; Ethyl Acetate (dry)
  Observations after storage in the fridge for ca. 48 hours: White solid
  XRPD analysis after re- dissolution and storage at 4° C. for ca. 48 hours: Amorphous
[5]; Ethyl Acetate (dry), *solids that precipitated under ambient conditions
  Crystallization technique: Anti-solvent Additions: Form A*
[5]; Methanol
  Crystallization technique: Anti-solvent Additions: Clear solution
  Observations after storage in the fridge for ca. 48 hours: Clear solution
[5]; Methylethyl Ketone
  Crystallization technique: Anti-solvent Additions: Form A
[5]; Methylisobutyl Ketone
  Crystallization technique: Anti-solvent Additions: Form B
[5]; Tetrahydrofuran
  Crystallization technique: Anti-solvent Additions: Form A
[5]; Toluene
  Crystallization technique: Anti-solvent Additions: Amorphous
[5]; n-Heptane
  Crystallization technique: Anti-solvent Additions: Clear solution
[6]; 1-Butanol
  Crystallization technique: Evaporations: Amorphous
[6]; 2-Methyl Tetrahydrofuran, WC = weakly crystalline
  Crystallization technique: Evaporations: Form A (WC)
[6]; 2-Propanol
  Crystallization technique: Evaporations: Amorphous
[6]; 40% Ethanol / 60% Water (% v/v) calc. aw = 0.7
  Crystallization technique: Evaporations: Amorphous
[6]; [11]
  Crystallization technique: Evaporations: Amorphous
[6]; 50% Acetonitrile / 50% Water (% v/v) calc. aw = 0.9
  Crystallization technique: Evaporations: Amorphous
[6]; 50% Ethanol / 50% Heptane (% v/v)
  Crystallization technique: Evaporations: Amorphous
[6]; [13]
  Crystallization technique: Evaporations: Amorphous
[6]; 95% 2-Propanol / 5% Heptane (% v/v), WC = weakly crystalline
  Crystallization technique: Evaporations: Form A (WC)
[6]; [14]
  Crystallization technique: Evaporations: Amorphous
[6]; [15]
  Crystallization technique: Evaporations: Amorphous
[6]; Acetone, WC = weakly crystalline
  Crystallization technique: Evaporations: Form A (WC)
[6]; Acetonitrile
  Crystallization technique: Evaporations: Amorphous
[6]; Ethanol, WC = weakly crystalline
  Crystallization technique: Evaporations: Form A (WC)
[6]; Ethyl Acetate (dry)
  Crystallization technique: Evaporations: Amorphous
[6]; Methanol
  Crystallization technique: Evaporations: Amorphous
[6]; Methylethyl Ketone
  Crystallization technique: Evaporations: Amorphous
[6]; Methylisobutyl Ketone
  Crystallization technique: Evaporations: Amorphous
[6]; Toluene
  Crystallization technique: Evaporations: Amorphous
[6]; n-Heptane
  Crystallization technique: Evaporations: Amorphous
[6]; tert-Butylmethyl Ether, WC = weakly crystalline
  Crystallization technique: Evaporations: WC (Pattern E)
[7]; Step 1: Lyophilization
  XRPD result: Amorphous
[7]; Step 5: Re-slurry in 5 mL acetonitrile
  XRPD result: Form J
[7]; Step 8: Re-slurry in 1.5 mL acetonitrile 18 hours
  XRPD result: Form J
[7]; Step 11: Re-slurry 4 ml acetonitrile 18 hours
  XRPD result: Form J
[7]; Step 12: Air drying 2, 5 and 24 hours
  XRPD result: Form J
[7]; Step 13: After 5 days storage under ambient conditions
  XRPD result: Amorphous
[7]; Step 14: Re-slurry 4 ml acetonitrile 18 hours
  XRPD result: Form J
[7]; Step 15: Isolation using Buchner funnel (10-15 seconds on filter bed)
  XRPD result: Amorphous
[7]; Step 16: Re-slurry 4 ml acetonitrile 4 hours
  XRPD result: Form J
[7]; Step 17: Isolation using centrifuge filtration
  XRPD result: Form J
[7]; Step 18: Ambient drying 18 hours
  XRPD result: Form J

## CC(=O)c1nn(CC(=O)N2[C@H](C(=O)Nc3nc(Br)ccc3C)C[C@@]3(C)C[C@@H]23)c2ccc(-c3cnc(C)nc3)cc12 [Form B]
[8]
  Relative stability in competitive slurry: more stable form
[9]
  Form change upon grinding (XRPD): did not change form
[10]
  PLM: Birefringent rods
